In US7495028B2, “R-bambuterol, its preparation and therapeutic uses” (priority 2002, dated 2009):

Tested on: conscious guinea pigs exposed to aerosol histamine
Test: Protection against histamine-evoked asthma in conscious guinea pigs
Format: in vivo, guinea pig
Settings: for Collapsed n: 8 animals; for % collapse / Latency time of collapse: dose-response, four hours before exposure
Experimental: Test methods: Guinea pigs (Dunki-Hartley strain, 190±30 g) were fasted overnight but given water ad libidum. The animals were restrained individually in a glass chamber and exposed to aerosol histamine generated by a nebulizer from a 0.2% aqueous solution of histamine under constant pressure at dose of 0.5 ml/min for a period of 15 sec. The animal was removed from the chamber, and its behavior was monitored. A sign of collapse and the latency time from exposure to collapse were recorded. Only the animals with latency time less than 120 sec, as an indication of sensitive to histamine, were chosen for later experiments. The animals chosen were allowed to recover completly by resting for 24 hours before experiments. Test compounds and racemic bambuterol hydrochloride were dissolved in saline.
Time course of the effect of test compounds: R-Bambuterol hydrochloride or racemic bambuterol hydrochloride at 2, 4 and 8 mg/kg, and vehicle alone, were administered to the guinea pigs orally via a stomach tube. Exposure of treated animals to aerosol histamine (as above) was done at 1, 4 and 24 hours after treatment. For each experimental group, there were a total of 8 animals with equal number of both sexes, and no repeated exposure was made for individual experimental animals.
Study of dose-response of test compounds: Four hours before the exposure to aerosol histamine, animals were randomized into groups (n=8, equal male and female), and given R-bambuterol hydrochloride or racemic bambuterol in doses of 0.25, 0.5, 1.0, 2.0, 4.0 and 8.0 mg/kg, and vehicle control, orally via a stomach tube. The numbers of collapsed animal as a result of asthmatic reaction to aerosol histamine were counted, and the latency times were recorded. Both of these parameters were used as quantitative measurements of the protective effects of the treatments on bronchospasm evoked by aerosol histamine.

`CN(C)C(=O)Oc1cc(OC(=O)N(C)C)cc(C(O)CNC(C)(C)C)c1` (stereo not drawn) [RS-bambuterol, bambuterol] showed a Collapsed % (2 mg/kg oral, 1st Hour) of 75.0%, a Latency (2 mg/kg oral, 1st Hour) of 168 ± 61 s and a Collapsed n (2 mg/kg oral, 1st Hour) of 6.0. For the same molecule, the Collapsed % (2 mg/kg oral, 4th Hour) was 50.0%, the Latency (2 mg/kg oral, 4th Hour) was 227 ± 56 s and the Collapsed n (2 mg/kg oral, 4th Hour) was 4.0. For the same molecule, the Collapsed % (2 mg/kg oral, 24th Hour) was 50.0%, the Latency (2 mg/kg oral, 24th Hour) was 208 ± 65 s and the Collapsed n (2 mg/kg oral, 24th Hour) was 5.0. It also gave a Collapsed % (4 mg/kg oral, 1st Hour) of 62.5%, a Latency (4 mg/kg oral, 1st Hour) of 199 ± 63 s and a Collapsed n (4 mg/kg oral, 1st Hour) of 5.0. For the same molecule, the Collapsed % (4 mg/kg oral, 4th Hour) was 25.0%, the Latency (4 mg/kg oral, 4th Hour) was 299 ± 51 s and the Collapsed n (4 mg/kg oral, 4th Hour) was 2.0. The Collapsed % (4 mg/kg oral, 24th Hour) was 37.5%, the Latency (4 mg/kg oral, 24th Hour) was 287 ± 57 s and the Collapsed n (4 mg/kg oral, 24th Hour) was 3.0. It also gave a Collapsed % (8 mg/kg oral, 1st Hour) of 37.5%, a Latency (8 mg/kg oral, 1st Hour) of 260 ± 66 s and a Collapsed n (8 mg/kg oral, 1st Hour) of 3.0. For the same molecule, the Collapsed % (8 mg/kg oral, 4th Hour) was 0.0%, the Latency (8 mg/kg oral, 4th Hour) was greater than 360 s and the Collapsed n (8 mg/kg oral, 4th Hour) was 0.0. For the same molecule, the Collapsed % (8 mg/kg oral, 24th Hour) was 25.0%, the Latency (8 mg/kg oral, 24th Hour) was 303 ± 54 s and the Collapsed n (8 mg/kg oral, 24th Hour) was 2.0. The “% collapse” value (0.25 mg/kg oral) was 100%, the “Latency time of collapse” value (0.25 mg/kg oral) was 61 s and the “% collapse” value (0.5 mg/kg oral) was 87.5%. For the same molecule, the “Latency time of collapse” value (0.5 mg/kg oral) was 114 s, the “% collapse” value (1 mg/kg oral) was 75% and the “Latency time of collapse” value (1 mg/kg oral) was 151 s. The “% collapse” value (2 mg/kg oral) was 50%, the “Latency time of collapse” value (2 mg/kg oral) was 227 s and the “% collapse” value (4 mg/kg oral) was 25%. For the same molecule, the “Latency time of collapse” value (4 mg/kg oral) was 299 s, the “% collapse” value (8 mg/kg oral) was 0% and the “Latency time of collapse” value (8 mg/kg oral) was greater than 360 s. The “Duration of protective effects” value (oral 2 to 8 mg/kg) was 24 h, the “Onset of protective effects after administration” value (oral 2 to 8 mg/kg) was “one” and the “Time of maximum protective effects after administration” value (oral 2 to 8 mg/kg) was 4 h. The “Dose at which full protective effect was seen” value (oral, collapse after aerosol histamine) was 8 mg/kg, the “ED50 (protection against collapse)” value (oral, four hours before aerosol histamine) was 1.68 mg/kg and the “Dose at which maximum effects on latency were seen” value (oral, latency time to collapse) was 8 mg/kg.
